US9089586B2, “Levocarrimycin, pharmaceutical compositions, preparation methods and uses thereof” (SHENYANG TONGLIAN GROUP CO., LTD., priority 2010, dated 2015)
In brackets after ≈: the same amount, converted by molar mass.

Assays:
[1] = system: urea plasma urealyticum (Uu); experiment: In vitro anti-urea plasma urealyticum MIC in U-PPLO; assay type: cell-based
Method: 1. Test method: add U-PPLO 0.8 ml in sterile 12-pore cell culture plate (add 0.9 ml in bacteria liquid control pore and 1.0 ml in culture medium control pores).
3. Divide into 3 groups (100 μg/ml, 10 μg/ml and 1 μg/ml antibiotic stocksolution), Add experimental antibiotics (levocarrimycin in example 6 of the present invention, acetyl spiramycin, erythrocin and azithromycin) in each experimental pores with sterile Tip according to double degradation concentration gradient: 100 μl, 50 μl, 25 μl and 12.5 μl.
4. Blend the above pores evenly, seal the culture plate with an adhesive tape and then culture in 37° C. incubator.
5. Abserve and record the growth of Uu on 17-24 h after the test.

Gonococcus (10) = experiment: In vitro pharmacodynamics, clinical isolates, two-fold plate dilution; assay type: cell-based; settings: 10 clinical isolates of Gonococcus
Staphylococcus aureus16 [2] = experiment: In vivo pharmacodynamic: mice abdominal cavity infected, half protective dose; settings: 168 h; mice infected with Staphylococcus aureus16, challenging dose 5.2 × 10^3 CFU/0.5 ml/mouse, intragastric administration, fatality within seven days
Method: (§1) Test method: infectious bacteria liquid preparation: put the bacteria liquid stored in the −80° C. refrigerator into the room for about 1 h at room temperature, and respectively draw 0.1 ml bacteria liquid of streptococcus pneumonia, streptococcus pyogenes and enterococcus into 2 ml MH soup (add 10% inactivated horse serum); inoculate the 2 ml MH soup with 0.1 ml bacteria liquid of staphylococcus aureus according to the above method, place the liquid into 37° C. incubator for 18 h to get the original bacteria liquid, dilute the original bacteria liquid with 5% gastric mucin, take 100% lethal bacteria amount if animal gets infected as infectious bacteria liquid.
(§2) Oral administration is planned for clinical medication of levocarrimycin, thus intragastric administration is selected for levocarrimycin test. After intraperitoneal injection of 0.5 ml lethal bacterial amount to the mice' abdominal cavity, the mice appear following symptom, such as reduced activity, repose, hair became loose, and so on. Clyster with 0.2 ml for every mouse after infection 0.5-6 h, there is no adverse reaction. Observe animal fatality within seven days and calculate the half protective dose (EDO of drugs for infected mice and compare the protective effect of drugs througe Bliss order.

[3] = system: Streptococcus pyogenes119; experiment: as above; settings: 168 h; mice infected with Streptococcus pyogenes119, challenging dose 4.9 × 10^4 CFU/0.5 ml/mouse, intragastric administration, fatality within seven days
Method: as §1, §2

[4] = system: Streptococcus pneumonia57; experiment: as above; settings: 168 h; mice infected with Streptococcus pneumonia57, challenging dose 8.8 × 10^4 CFU/0.5 ml/mouse, intragastric administration, fatality within seven days
Method: as §1, §2

Staphylococcus aureus12 = experiment: as above; settings: 168 h; mice infected with Staphylococcus aureus12, challenging dose 4.8 × 10^4 CFU/0.5 ml/mouse, intragastric administration, fatality within seven days
Method: as §1, §2

[5] = system: Streptococcus pyogenes119; experiment: MIC against the infecting test organism (Table 3); assay type: cell-based, Streptococcus pyogenes
[6] = system: chlamydia trachomatis serotype D/UW-3/Cx; experiment: In vitro anti-chlamydia MIC, McCoy cells, immunofluorescent staining of inclusions; assay type: cell-based; settings: Chlamydia trachomatis D/UW-3/Cx in McCoy cells, 48 h
[7] = system: Streptococcus pyogenes772; experiment: MIC against the infecting test organism (Table 3); assay type: cell-based, Streptococcus pyogenes
Staphylococcus aureus76 = experiment: MIC against the infecting test organism (Table 4); assay type: cell-based, Staphylococcus aureus
[8] = system: chlamydia pneumoniae CWL-029; experiment: In vitro anti-chlamydia MIC, HEp-2 cells, immunofluorescent staining of inclusions; assay type: cell-based; settings: Chlamydia pneumoniae CWL-029 in HEp-2 cells, 72 h
[9] = system: Streptococcus pyogenes102; experiment: MIC against the infecting test organism (Table 3); assay type: cell-based, Streptococcus pyogenes
Staphylococcus aureus16 [10] = experiment: MIC against the infecting test organism (Table 4); assay type: cell-based, Staphylococcus aureus
Streptococcus pneumonia3 = experiment: MIC against the infecting test organism (Table 3); assay type: cell-based, Streptococcus pneumonia
Enterococcus32 = experiment: MIC against the infecting test organism (Table 4); assay type: cell-based, Enterococcus
[11] = system: Streptococcus pneumonia57; experiment: MIC against the infecting test organism (Table 3); assay type: cell-based, Streptococcus pneumonia
[12] = system: chlamydia trachomatis serotype B/TW-5/OT; experiment: In vitro anti-chlamydia MIC, McCoy cells, immunofluorescent staining of inclusions; assay type: cell-based; settings: Chlamydia trachomatis B/TW-5/OT in McCoy cells, 48 h

CC[C@H]1OC(=O)[C@H](C)[C@@H](O[C@H]2C[C@@](C)(OC)[C@@H](O)[C@H](C)O2)[C@H](C)[C@@H](O[C@@H]2O[C@H](C)C[C@H](N(C)C)[C@H]2O)[C@](C)(O)C[C@@H](C)CN(C)[C@H](C)[C@@H](O)[C@]1(C)O [Azithromycin]
MIC ([1]; final MIC (24 h), determined 4 times, 10^3 CCU/ml, read-out: MIC of anti-urea plasma urealyticum strains): 0.025 to 0.125 µg/mL
MIC (Gonococcus (10)): 0.12 to 64 µg/mL (≈ 0.16 to 85.4 µM)
ED50 (Staphylococcus aureus16 [2]): 75.8 mg/kg
ED50 [3]: 99 mg/kg
ED50 [4]: 19.7 mg/kg
ED50 (Staphylococcus aureus12): 217 mg/kg

CC[C@H]1OC(=O)[C@H](C)[C@@H](O[C@H]2C[C@@](C)(OC)[C@@H](O)[C@H](C)O2)[C@H](C)[C@@H](O[C@@H]2O[C@H](C)C[C@H](N(C)C)[C@H]2O)[C@](C)(O)C[C@@H](C)C(=O)[C@H](C)[C@@H](O)[C@]1(C)O [Erythrocin]
anti-Uu function ([1]; verbal comparison of the four antibiotics): the worst
MIC (Gonococcus (10)): 0.12 to 64 µg/mL (≈ 0.164 to 87.2 µM)

Acetyl spiramycin
MIC [5]: 0.5 µg/mL
Minimal inhibitory concentration (MIC) [6]: 2 µg/mL
MIC of anti-urea plasma urealyticum strains ([1]; final MIC (24 h), determined 4 times, 10^3 CCU/ml): 0.5 µg/mL
MIC [7]: 0.25 µg/mL
MIC scope (Gonococcus (10)): 0.12 to 64 µg/mL
MIC (Staphylococcus aureus76): 1 µg/mL
Minimal inhibitory concentration (MIC) [8]: 0.5 µg/mL
MIC [9]: 0.5 µg/mL
MIC (Staphylococcus aureus16 [10]): 1 µg/mL
MIC (Streptococcus pneumonia3): 0.5 µg/mL
MIC (Enterococcus32): 1 µg/mL
MIC [11]: 1 µg/mL
Minimal inhibitory concentration (MIC) [12]: 4 µg/mL
